For test [1], the target named is T1, CNGA2RE:A4:B1bRE channels (Rattus norvegicus, UniProt A0A8I5ZN27+Q00195+Q64359, R1106E/R538E).
T1 construct: expressed in transfected cells; host or cells: Xenopus laevis oocytes (cRNA injection), excised inside-out patches
Description: Concentration-activation relationship, patch-clamp. The settings on record: for EC50: Equation 2, +100 mV. The test is classed as biochemical. The protocol: In order to determine the apparent affinity of the modulatory subunits in heterotetrameric CNGA2:A4:B1b channels for cGMP, we coexpressed each of them with disabled neighbored subunits, generating themselves activation effects only at much higher ligand concentrations. In case of two well-separated current components, this would allow us to determine the EC50 value for the CNGB1b and CNGA4 subunit in functional heterotetrameric channels.
(§1) Patch-clamp experiments were performed using an Axopatch 200B amplifier (Molecular Devices LLC, CA, U.S.A.) in the inside-out configuration. The patch pipettes for recording of macroscopic currents were pulled from borosilicate glass tubing (outer diameter 2.0 mm, inner diameter 1.0 mm; Hilgenberg GmbH, Germany). The initial resistance was 0.7–1.3 MΩ. The patches were formed as pushed inside-out patches. […] Cyclic nucleotide concentration jumps were performed using a double-barreled glass pipette mounted on a piezo-driven device. Intracellular (bath) and extracellular (pipette) solutions contained (mM) 150 KCl, 1 EGTA, 5 Hepes, pH = 7.4 with KOH. […] Currents in the absence of the cyclic nucleotide were subtracted. All patches included in this study were first tested for channel expression in the presence of a saturating ligand concentration. Only patches with large current, i.e. a large number of channels, were included in our statistics. The currents were measured at +10 mV or, if mentioned, at +100 mV.
(§2) Fits of equations to data points were performed with the 8.1G® software (OriginLab Corporation, Northampton, U.S.A.). Concentration-activation relationships were obtained by relating the actual current amplitude, I, to the maximum current amplitude elicited by a saturating concentration of ligand, Imax, and plotting this ratio as function of the ligand concentration, x. The concentration-activation data were fitted using the Hill equation
(§3) For the concentration-activation relationships showing two components, the data points were fitted to the sum of two Hill equations according to
(§4) EC50,h, EC50,l, Hh, and Hl are the ligand concentration of half maximum current and the Hill coefficient for the high and low affinity component, respectively. a and (1-a) denote the contribution of the high and low affinity component, respectively.
For orientation: The patch-clamp technique gives a direct electrical read-out from membranes.

Another test has as its target T2, CNGA2RE:A4:B1b channels (Rattus norvegicus, UniProt A0A8I5ZN27+Q00195+Q64359, R538E).
T2 construct: expressed in transfected cells; host or cells: Xenopus laevis oocytes (cRNA injection), excised inside-out patches
Kind of test: Concentration-activation relationship, patch-clamp. The format is biochemical. To be noted: for EC50: Equation 2, +100 mV. The protocol:
In order to consider the combined apparent affinity of CNGA4 and CNGB1b, we measured the concentration-response relationship of CNGA2RE:A4:B1b channels (Fig. 3c; Table 1).
as §1, §2, §3, §4

For another test, the system named is CNGA2RE:A4. Further details: method as in Nache et al., 2012; key: +: ligand binding to the respective modulatory subunits was either observed or not; −: ligand binding to the respective modulatory subunits was either observed or not. To be noted: 10 μM; construct CNGA2RE:A4; ref Nache et al., 2012; cited from earlier work.
[2] abbreviates: Hill coefficient of low affinity component, +100 mV.
[3] abbreviates: low affinity component, read-out: EC50,l.

Several values for one entry are separate records, joined by “and”; a condition that tells them apart may be missing. Identical values can stand only once. Like-named read-outs stand apart in the source and are kept apart here.

T2 sequence (Q00195 whole entry R538E): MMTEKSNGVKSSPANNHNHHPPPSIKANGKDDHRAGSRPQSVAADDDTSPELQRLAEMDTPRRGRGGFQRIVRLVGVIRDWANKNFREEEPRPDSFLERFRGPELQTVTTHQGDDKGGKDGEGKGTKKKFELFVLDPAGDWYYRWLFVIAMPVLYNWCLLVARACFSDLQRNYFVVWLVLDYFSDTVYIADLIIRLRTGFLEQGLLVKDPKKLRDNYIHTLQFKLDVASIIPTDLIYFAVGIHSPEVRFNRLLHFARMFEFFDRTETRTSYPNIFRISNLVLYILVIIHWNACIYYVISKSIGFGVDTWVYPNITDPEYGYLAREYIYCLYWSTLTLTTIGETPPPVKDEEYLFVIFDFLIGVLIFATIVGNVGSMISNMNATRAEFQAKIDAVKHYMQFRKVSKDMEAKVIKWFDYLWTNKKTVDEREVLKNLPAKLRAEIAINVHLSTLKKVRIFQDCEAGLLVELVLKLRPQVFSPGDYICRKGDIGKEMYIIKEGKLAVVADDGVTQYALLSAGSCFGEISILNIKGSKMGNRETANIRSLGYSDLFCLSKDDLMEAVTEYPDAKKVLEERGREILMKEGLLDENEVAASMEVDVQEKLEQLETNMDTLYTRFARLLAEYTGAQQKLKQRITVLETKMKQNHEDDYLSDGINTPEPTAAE
T2 sequence (Q64359 whole entry): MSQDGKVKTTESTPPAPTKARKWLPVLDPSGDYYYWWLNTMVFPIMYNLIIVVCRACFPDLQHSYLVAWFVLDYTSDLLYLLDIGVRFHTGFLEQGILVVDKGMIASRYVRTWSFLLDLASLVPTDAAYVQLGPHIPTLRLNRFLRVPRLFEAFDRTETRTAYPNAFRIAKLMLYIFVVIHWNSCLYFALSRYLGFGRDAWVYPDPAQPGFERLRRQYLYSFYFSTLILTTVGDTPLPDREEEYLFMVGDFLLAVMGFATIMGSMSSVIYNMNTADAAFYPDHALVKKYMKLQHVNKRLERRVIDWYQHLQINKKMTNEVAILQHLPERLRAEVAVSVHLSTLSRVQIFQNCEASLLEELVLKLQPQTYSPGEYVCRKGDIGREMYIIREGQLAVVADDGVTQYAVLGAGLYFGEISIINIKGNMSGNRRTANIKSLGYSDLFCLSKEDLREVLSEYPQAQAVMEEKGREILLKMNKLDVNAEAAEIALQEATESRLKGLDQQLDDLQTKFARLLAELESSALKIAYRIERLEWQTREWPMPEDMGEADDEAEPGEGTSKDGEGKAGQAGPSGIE
T2 sequence (A0A8I5ZN27 1-858 isoform A0A8I5ZN27-2, stated change not applied): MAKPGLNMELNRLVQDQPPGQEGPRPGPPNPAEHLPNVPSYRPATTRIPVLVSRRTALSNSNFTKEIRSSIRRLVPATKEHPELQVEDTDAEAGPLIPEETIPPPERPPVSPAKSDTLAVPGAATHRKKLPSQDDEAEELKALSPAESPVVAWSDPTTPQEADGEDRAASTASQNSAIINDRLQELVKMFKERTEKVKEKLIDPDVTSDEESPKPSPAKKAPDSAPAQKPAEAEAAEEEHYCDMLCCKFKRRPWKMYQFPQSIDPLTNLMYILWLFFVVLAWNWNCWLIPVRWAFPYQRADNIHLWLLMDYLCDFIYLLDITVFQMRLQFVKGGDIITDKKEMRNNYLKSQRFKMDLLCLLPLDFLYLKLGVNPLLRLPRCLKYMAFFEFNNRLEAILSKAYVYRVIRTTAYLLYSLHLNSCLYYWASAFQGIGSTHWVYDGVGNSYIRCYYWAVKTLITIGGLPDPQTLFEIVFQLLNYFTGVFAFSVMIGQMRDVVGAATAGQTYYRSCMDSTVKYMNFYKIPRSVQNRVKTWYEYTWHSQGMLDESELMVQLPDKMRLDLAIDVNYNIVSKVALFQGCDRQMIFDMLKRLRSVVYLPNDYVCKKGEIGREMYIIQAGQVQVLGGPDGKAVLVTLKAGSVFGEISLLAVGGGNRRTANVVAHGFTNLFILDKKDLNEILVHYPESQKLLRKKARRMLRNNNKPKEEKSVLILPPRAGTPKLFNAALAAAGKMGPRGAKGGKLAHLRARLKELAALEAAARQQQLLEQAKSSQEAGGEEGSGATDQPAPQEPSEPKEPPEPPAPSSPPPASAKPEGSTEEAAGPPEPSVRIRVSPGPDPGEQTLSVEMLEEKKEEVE
T1 sequence (Q00195 whole entry R538E): as the sequence (Q00195 whole entry R538E) above
T1 sequence (Q64359 whole entry): as the sequence (Q64359 whole entry) above
T1 sequence (A0A8I5ZN27 1-858 isoform A0A8I5ZN27-2 R657E): as the sequence (A0A8I5ZN27 1-858 isoform A0A8I5ZN27-2, stated change not applied) above, with R657E counted along it

For orientation: EC50 means the concentration at which the effect is half-maximal. `Nc1nc2c(ncn2[C@@H]2O[C@@H]3COP(=O)(O)O[C@H]3[C@H]2O)c(=O)[nH]1` [cGMP]: the H1 stood at 1.1 in test [1] (setting [2]) and 1.2 at CNGA2RE:A4:B1b channels (setting [2]). For the same compound, the “a (contribution of the high affinity component)” value in test [1] (fraction, Equation 2) came to 0.24; on CNGA2RE:A4:B1b channels (fraction, Equation 2), 0.89. Further, the EC50 is 8.9 µM and 8.86 µM in test [1] (high affinity component (action of CNGA4), read-out: EC50,h); 364 µM in test [1] (setting [3]); 5.7 µM at CNGA2RE:A4:B1b channels (high affinity component (CNGA4 and CNGB1b combined), read-out: EC50,h); 733 µM at CNGA2RE:A4:B1b channels (setting [3]). Also, the “maximum contribution of CNGA4 to channel activation (a)” value in test [1] (of the maximum channel activity generated by all subunits) was 24.6% and ~ 24%. For the same compound, the Hh at CNGA2RE:A4:B1b channels (Hill coefficient of high affinity component, +100 mV) was 1.05 and 1.1. The “contribution of the high-affinity component (a)” value on CNGA2RE:A4:B1b channels (combined contribution of CNGA4 and CNGB1b) amounted to 89%.

Take 8-[DY-547]-AET-cGMP [fcGMP]: the “Ligand binding to CNGA4” value in the test on CNGA2RE:A4 is given as “+”.

(Values after article PMC4942689, “Deciphering the function of the CNGB1b subunit in olfactory CNG channels” (Scientific Reports, 2016).)
